The test system of data set [1] is proteinase K. Kind of data set: Proteolysis assay with proteinase K. The format is in vitro ADME. The following applies: Tritirachium album (Parengyodontium album); fitted half-life; 50 mM Tris, pH 8, 100 mM NaCl, room temperature, 50 M peptide, 0.1 g/ml proteinase K (µ lost in print); LC-ESI-MS, intact peptide relative to t=0, exponential decay fit; read-out: Proteinase K t 1/2. The protocol:
(§1) The proteolytic stability of the peptides was also investigated by using trypsin and proteinase K. The unconstrained H3_118–135 was cleaved within 14 minutes by both proteases (Figure 4, Table 2 and the Supporting Information), whereas the constrained peptides had increased stability depending on the position of the constraint. […]
(§2) The experiment wells contained aqueous buffer (50 mM Tris, pH 8, 100 mM NaCl, 170 µL) to which peptide solution (10 µL, 1 mM in H2O) and enyzme solution (20 µL 0.5 µg/ml trypsine or 20 µL 1 µg/ml proteinase K) was added. Final concentrations in the experiment wells were 50 µM peptide, 0.05 µg/ml trypsine or 0.1 µg/ml proteinase K. A control experiment was started at the same time without the enzymes. 10 µL aliqouts of the reaction were quenched at different time-points using 90 µL 2% TFA solution. Samples were measured using LC-ESI-MS on a Bruker Maxis impact mass spectrometer equipped with a Thermo Ultimate 3000 UPLC. All samples were run on an Acquity BEH C4 column using a gradient of 1-90% B (A: H2O + 0.1 % formic acid, B: ACN + 0.1 % formic acid) over 4 minutes.
(§3) Intact peptide content was determined relative to the t=0 time-point based on HPLC peak areas. Curves were fitted using an exponential decay function in Origin Pro 9.

The target in data set [2] is T1, ASF1A(1–156) (Homo sapiens, UniProt Q9Y294).
T1 construct: Recombinant human ASF1 (ASF1A(1-156)) was purified as already described; (His)6-GST-TEV site (N, cleaved yes); made in house; host or cells: E. coli (pETM30 plasmid)
T1 sequence (Q9Y294 1-156): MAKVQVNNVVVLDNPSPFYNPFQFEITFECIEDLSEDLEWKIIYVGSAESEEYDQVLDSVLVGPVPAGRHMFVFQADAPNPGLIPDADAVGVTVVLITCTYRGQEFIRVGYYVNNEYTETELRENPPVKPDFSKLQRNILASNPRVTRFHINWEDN
Nature of the data set: NMR chemical-shift-perturbation study with 15N labelled ASF1A(1–156). The format is binding. The following applies: uniformly 15N labelled ASF1A(1–156), mapped on PDB 2IIJ. How it is done:
In order to confirm the binding mode of the constrained peptides with ASF1, chemical‐shift‐perturbation studies were carried out for all three peptides (Figure S2) by using uniformly ^15N labelled ASF1A(1–156). The chemical‐shift variation was mapped onto the protein structure of ASF1A–H3 (PDB ID: 2IIJ). All three peptides induced the highest values of chemical‐shift variation and a “slow‐exchange” regime for the ASF1 residues defining the already well characterised H3 binding site (V45–E51, V90–I97, R108–Y111, V146–T147),37, 45 thus confirming the preservation of the specific binding mode for the constrained peptides.

The nature of data set [3]: Circular dichroism (CD), % helicity. The following applies: 100 μM peptide in 40 mM sodium phosphate, pH 7.5, 293 K, scans in duplicate. The format is physicochemical. The protocol: The helical character of all three peptides was investigated by using circular dichroism (CD) in both 40 mM phosphate buffer and trifluoroethanol (TFE). […] (Figure 2).
Circular Dichroism was performed on an Applied Photophysics ChiraScan Apparatus and Software.
For each scan, the following parameters were used: 180-260 nm range; point time 1 s; 1 nm per point; step = 1; bandwidth 4.3 nm; path length 1 mm; temperature 20 °C. Scans were done in duplicate.
Samples were dissolved in 4 0 mM sodium phosphate b uffer pH 7.50 at concentration of 100 μM.
Where θ = circular dichroism at a given wavelength, c = molar concentration, l = path length in cm, R = number of residues in the peptide sequence.
Figure ESI 1. Conformational analyses of histone H3 variant peptides by circular dichroism (CD) analyses (peptide concentration =100 μM, 40 mM sodium phosphate (or 40 mM sodium phosphate/ […]
(§4) Expression and Purification of ASF-1
(§5) Recombinant human ASF1 (ASF1A(1-156)) was purified as already described from expression in E. coli of a (His)6–GST –Tev site–Asf1 fusion protein using the pETM30 plasmid. Briefly, soluble (His)6-tagged GST fusion protein was purified on reduced glutathione (GSH) agarose beads (Sigma).
(§6) After cleavage with recombinant (His)6-TEV protease at room temperature overnight, the (His)6-GST tag and the protease were trapped in a Ni-NTA agarose column (Qiagen). The flow-through fraction containing ASF1 proteins was further purified by anion exchange chromatography using a Resource Q 6mL column (GE Healthcare). ASF1 was then concentrated using an Amicon device (Millipore) and the buffer was replaced with a 50mM Tris-HCl (pH7.5). Unlabled ASF1 used for ITC experiments was purified from pellets of bacteria grown in LB medium, and uniformly labelled ASF1 from bacteria gown in M9 minimal media supplemented with (15NH4)Cl (Eurisotop,0.5 g.l−1) as the sole nitrogen source.
(§7) (1 picture or pasted object on this page, not shown here)
(In general: Circular dichroism is the unequal absorption of left and right circularly polarised light.)

The target of data set [4] is T1, ASF1A(1–156). Nature of the data set: Isothermal titration calorimetry (ITC) of peptide binding to ASF1. The following applies: 20°C, 50mM Tris-HCl pH 7.5, protein 10µM, peptide 200µM, at least in duplicate. The protocol:
Binding of the peptides to ASF1 was then assessed by isothermal titration calorimetry (ITC; Figure 3, Table 1). […] Strikingly, the binding potency was similar in all three cases, ΔG=−7.3 to −8.0 kcal M ^−1, despite H3_118–135(St123–127)GCA adopting a more helical conformation and therefore presumably being more pre‐organised towards ASF1 recognition. Analyses of the thermodynamic determinants of binding reveal enthalpy–entropy compensation. […] In contrast, for the more helical peptide, H3_118–135(St123–127)GCA, the entropy of binding (TΔS=3.1 kcal M ^−1) was favourable, consistent with the anticipated effect of pre‐organisation; however, the enthalpy of binding (ΔH=−4.2 kcal M ^−1) was less favourable than for the less helical variants. […] Such an effect might arise because the less helical peptides H3_118–135 and H3_118–135(St120–124) form enthalpically favourable backbone hydrogen bonds upon a change in conformation to the helix, whereas the more pre‐organised helix H3_118–135(St123–127)GCA neither gains new hydrogen bonds nor undergoes an entropically costly change in conformation on binding ASF1. Alternatively, differential changes in the solvation of the peptides upon binding could account for such a difference in thermodynamic signature. Either way, the results underscore a limitation in correlating conformational stability against binding potency for the unconstrained (H3_118–135) and constrained (H3_118–135(St123–127)GCA) peptides; although the helical conformation is preferred for H3_118–135(St123–127)GCA, this can be considered as arising from an increase in energy (or destabilisation) of nonhelical conformations for this sequence as opposed to preorganisation of the wild‐type sequence. […]
as §4, §5, §6, §7
Isothermal Titration Calorimetry
All IsoThermal Calorimetry (ITC) experiments were performed in a VP-ITC titration calorimeter (Microcal/Malvern) at 20°C, in a 50mM Tris-HCl pH 7.5 buffer. Protein and peptides concentrations were set to values 10µM and 200µM, respectively. Protein and peptide samples were prepared in the same buffer and degassed (ThermoVac, Malvern). After equilibrating the cell at […], the rotating syringe (310rpm) injected at intervals of 280s, 6µL aliquots of peptide solution into the Asf1 previously introduced in the sample cell until saturation was observed. Raw ITC data were processed with the Origin 7.0 Software (OriginLab, Malvern) using the One-Set of Sites fitting model. All ITC experiments were performed at least in duplicate. […]
as §3
Background: ITC needs no label: the signal is the heat of the interaction.

The test system of data set [5] is trypsin. Kind of data set: Proteolysis assay with trypsin. The format is in vitro ADME. How it is done: as §1, §2, §3
Data set [6] addresses proteinase K (Parengyodontium album, UniProt P06873). Nature of the data set: Proteolysis assay with proteinase K. The format is in vitro ADME. The following applies: 50 mM Tris, pH 8, 100 mM NaCl, room temperature, LC-ESI-MS. How it is done: as §1, §2, §3
Data set [7] addresses T2, ASF1A(1–156) (UniProt Q9Y294 1-156, uniformly 15N labelled (in the chemical-shift-perturbation study only)).
T2 construct: ASF1A (anti-silencing function 1A), histone chaperone, conserved N-terminal domain, residues 1-156; The same construct limits as in PDB 2IIJ; also called anti-silencing function 1
Kind of data set: ITC; H3 peptides with ASF1A(1–156); exothermic, fitted to a 1:1 binding isotherm; conditions not shown. The following applies: both partners purified.

Where [8] appears, read: trypsin, fitted half-life, 50 mM Tris, pH 8, 100 mM NaCl, room temperature, 50 M peptide, 0.05 g/ml trypsine (µ lost in print), LC-ESI-MS, intact peptide relative to t=0, exponential decay fit, read-out: Trypsin t 1/2.

Results on 4 molecules are retold here after PMC6468270, “Recognition of ASF1 by Using Hydrocarbon‐Constrained Peptides” (Chembiochem, 2019).

Where “and” joins values, the source holds several entries; their conditions need not be identical. Equal entries are not always repeated. Where two headings read alike, the source gives them in different places. Starred links: 1 amine or outer side, 2 acyl side, 3 side chain; linkers in the order of their positions; H or OH if unused. Positions of bridges follow the written chain, without caps; N, C: chain ends. Non-standard residues stand in square brackets, D forms with d. Residues, ends and D or L forms follow the SMILES beside them. Nle(6-ylidene) = O=C([C@H](CCCC=[*:3])N[*:1])[*:2]

T2 sequence (Q9Y294 1-156): as above
Chain of proteinase K (Parengyodontium album, UniProt P06873) (P06873 106-384, species assumed): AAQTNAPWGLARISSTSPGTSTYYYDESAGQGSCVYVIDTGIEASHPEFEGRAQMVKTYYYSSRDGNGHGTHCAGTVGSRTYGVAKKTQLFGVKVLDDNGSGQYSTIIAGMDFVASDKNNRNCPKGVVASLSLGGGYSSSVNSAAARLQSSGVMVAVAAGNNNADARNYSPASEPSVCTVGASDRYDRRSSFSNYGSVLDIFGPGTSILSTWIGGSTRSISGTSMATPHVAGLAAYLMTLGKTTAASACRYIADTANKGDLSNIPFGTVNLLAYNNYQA

`CC[C@H](C)[C@H](NC(=O)[C@H](CCCNC(=N)N)NC(=O)[C@H](CCCNC(=N)N)NC(=O)[C@H](C)NC(=O)[C@H](CC(C)C)NC(=O)[C@H](CCC(N)=O)NC(=O)[C@@H]1CCCC=CCCC[C@H](NC(=O)[C@H](C)NC(=O)CNC(C)=O)C(=O)NCC(=O)N[C@@H](CCCCN)C(=O)N[C@@H](CC(=O)O)C(=O)N1)C(=O)N[C@@H](CCCNC(=N)N)C(=O)NCC(=O)N[C@@H](CCC(=O)O)C(=O)N[C@@H](CCCNC(=N)N)C(=O)N[C@@H](C)C(N)=O` [H3_118–135(St120–124)] (Ac-GA[Nle(6-ylidene)]GKD[Nle(6-ylidene)]QLARRIRGERA-NH2; staple 3-7): the half-life at 50 µM in data set [1] came to 65.8 ± 15.7 min; in data set [5] (setting [8]) it was 14.9 ± 2.5 min. The “chemical-shift variation at the B domain binding site (S59–F72) of ASF1 (nonspecific binding)” value (from here on “chemical-shift variation”) in data set [2] is “exhibited chemical‐shift variations”. Moreover, in data set [3], the “% helicity” value was found to be 20%. For the same molecule, the ΔG in data set [4] is given as −8.3±0.07 kcal M ^−1.
In the case of `CC[C@H](C)[C@H](NC(=O)[C@H](CCCNC(=N)N)NC(=O)[C@H](CCCNC(=N)N)NC(=O)[C@@H]1CCCC=CCCC[C@H](NC(=O)[C@H](CCCCN)NC(=O)CNC(=O)[C@H](CCSC)NC(=O)[C@H](C)NC(=O)CNC(C)=O)C(=O)N[C@@H]([C@@H](C)CC)C(=O)N[C@@H](CCC(N)=O)C(=O)N[C@@H](CC(C)C)C(=O)N1)C(=O)N[C@@H](CCCNC(=N)N)C(=O)NCC(=O)N[C@@H](CCC(=O)O)C(=O)N[C@@H](CCCNC(=N)N)C(=O)N[C@@H](C)C(=O)NCC(=O)N[C@@H](CS)C(=O)N[C@@H](C)C(N)=O` [H3_118–135(St123–127)GCA] (Ac-GAMGK[Nle(6-ylidene)]IQL[Nle(6-ylidene)]RRIRGERAGCA-NH2; staple 6-10), the half-life at 50 µM in data set [1] turned out to be 23.1 ± 2.6 min. In addition, the “chemical-shift variation” value in data set [2] is “no chemical‐shift variation”. The “% helicity” value in data set [3] was 29%. For the same molecule, in data set [4], the TΔS was 3.1 kcal M ^−1 and 3.1±0.2 kcal M ^−1; the ΔG is −7.3±0.05 kcal M ^−1; the ΔH is −4.2 kcal M ^−1 and −4.2±0.08 kcal M ^−1. Further, the half-life at 50 µM in data set [5] (setting [8]) came to 40.5 ± 16.9 min.
On to Ac-GAMGKDIQLARRIRGERA-NH2 [H3_118–135], for which the “time within which peptide was cleaved by proteinase K” value in data set [6] was not above 14 min. The half-life at 50 µM in data set [1] was 12.2 ± 0.8 min. Moreover, the “chemical-shift variation” value in data set [2] was “exhibited chemical‐shift variations”. Also, in data set [3], the “% helicity” value is listed as 15%. In addition, in data set [4], the TΔS was −6.4 to −6.7 kcal M ^−1 and −6.4±0.51 kcal M ^−1; the ΔG was −8.0±0.14 kcal M ^−1; the ΔH is −14.4 to −15.0 kcal M ^−1 and −14.4±0.37 kcal M ^−1. The molecule further registered a half-life at 50 µM in data set [5] (isolated enzyme trypsin, pH 8) of 13.3 ± 1.5 min.

B1: H3_(118–135) (peptide, UniProt P68431 119-136, looked up)
peptide: TIMPKDIQLARRIRGERA
notes: histone H3, C-terminal helix peptide, residues 118-135; also called histone H3(118–135); unconstrained H3_(118–135); source: synthetic peptide (solid-phase peptide synthesis)
A word on the Kd: it is the equilibrium constant for the complex coming apart. The term stoichiometry N denotes a count of units in the complex or per binding partner. Turning to B1, in data set [7], the Kd amounted to 1.34 ± 0.33 µM, the dH is -14.4 ± 0.37 kcal/M and the “stoichiometry N” value is 0.94 ± 0.04.
